Source: the supplement of paper PMC4862054

Experiments:
Settings in all cases: incubation time: 72 h
[1] = system: BT-474; assay: normalised response (% of control), CellTox Green; higher = less cell death (100 = DMSO, 0 = benzethonium chloride kill control)
Procedure, shortened: (§1)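 Two readouts were taken after 72 h: CellTox Green fluorescence (485/520 nm) first, then CellTiter-Glo luminescence after 10 min at room temperature. Breast cancer cell lines had been seeded as 20 µl suspension into 384-well plates holding compound at 5 concentrations in 10-fold steps across a compound-specific 10,000-fold range. Each value is a normalised signal at a single concentration, with plates scaled to 0.1 % DMSO (100) and a positive kill control (0).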

[2] = system: BT-549; assay: as above
Procedure, shortened: as §1

[3] = system: CAL-120; assay: as above
Procedure, shortened: as §1

[4] = system: CAL-148; assay: as above
Procedure, shortened: as §1

[5] = system: CAL-51; assay: as above
Procedure, shortened: as §1

[6] = system: CAL-85-1; assay: as above
Procedure, shortened: as §1

[7] = system: DU-4475; assay: as above
Procedure, shortened: as §1

[8] = system: HCC1143; assay: as above
Procedure, shortened: as §1

[9] = system: HCC1599; assay: as above
Procedure, shortened: as §1

[10] = system: HCC1937; assay: as above
Procedure, shortened: as §1

[11] = system: HDQ-P1; assay: as above
Procedure, shortened: as §1

[12] = system: Hs578T; assay: as above
Procedure, shortened: as §1

[13] = system: MCF-10A; assay: as above
Procedure, shortened: as §1

[14] = system: MDA-MB-231; assay: as above
Procedure, shortened: as §1

[15] = system: MDA-MB-436; assay: as above
Procedure, shortened: as §1

[16] = system: MDA-MB-453; assay: as above
Procedure, shortened: as §1

[17] = system: MDA-MB-468; assay: as above
Procedure, shortened: as §1

[18] = system: MFM-223; assay: as above
Procedure, shortened: as §1

[19] = system: BT-474; assay: normalised response (% of control), CellTiter-Glo; higher = more viable cells (100 = DMSO, 0 = benzethonium chloride kill control)
Procedure, shortened: as §1

[20] = system: BT-549; assay: as above
Procedure, shortened: as §1

[21] = system: CAL-51; assay: as above
Procedure, shortened: as §1

[22] = system: CAL-85-1; assay: as above
Procedure, shortened: as §1

[23] = system: DU-4475; assay: as above
Procedure, shortened: as §1

[24] = system: HCC1599; assay: as above
Procedure, shortened: as §1

[25] = system: HCC1937; assay: as above
Procedure, shortened: as §1

[26] = system: HDQ-P1; assay: as above
Procedure, shortened: as §1

[27] = system: Hs578T; assay: as above
Procedure, shortened: as §1

[28] = system: MCF-10A; assay: as above
Procedure, shortened: as §1

[29] = system: MDA-MB-231; assay: as above
Procedure, shortened: as §1

[30] = system: MFM-223; assay: as above
Procedure, shortened: as §1

[31] = system: SK-BR-3; assay: as above
Procedure, shortened: as §1

SMILES: NC1(c2ccc(-c3nc4ccn5c(=O)[nH]nc5c4cc3-c3ccccc3)cc2)CCC1 [MK-2206] (1000 nM)
- normalised response [1]: 99.2%
- normalised response [2]: 122%
- normalised response [3]: 97.8%
- normalised response [4]: 11.1%
- normalised response [5]: 98.1%
- normalised response [6]: 69%
- normalised response [7]: 109%
- normalised response [8]: 131%
- normalised response [9]: 117%
- normalised response [10]: 108%
- normalised response [11]: 109%
- normalised response [12]: 82.1%
- normalised response [13]: 104%
- normalised response [14]: 106%
- normalised response [15]: 112%
- normalised response [16]: 96.7%
- normalised response [17]: 147%
- normalised response [18]: 95.9%
- normalised response [19]: 95.4%
- normalised response [20]: 69.3%
- normalised response [21]: 84.2%
- normalised response [22]: 86.1%
- normalised response [23]: 87.3%
- normalised response [24]: 72.6%
- normalised response [25]: 86%
- normalised response [26]: 81.4%
- normalised response [27]: 87.2%
- normalised response [28]: 83.3%
- normalised response [29]: 86.1%
- normalised response [30]: 46.9%
- normalised response [31]: 52.1%

SMILES: O=C(c1cc(Cc2n[nH]c(=O)c3ccccc23)ccc1F)N1CCN(C(=O)C2CC2)CC1 [Olaparib] (10000 nM)
- normalised response [1]: 96.4%
- normalised response [2]: 102%
- normalised response [3]: 94.8%
- normalised response [4]: 75.3%
- normalised response [5]: 44.8%
- normalised response [6]: 105%
- normalised response [7]: 98.5%
- normalised response [8]: 94.2%
- normalised response [9]: 99.2%
- normalised response [10]: 99.8%
- normalised response [12]: 96.5%
- normalised response [13]: 94.8%
- normalised response [14]: 35.9%
- normalised response [15]: 44%
- normalised response [16]: 109%
- normalised response [17]: 112%
- normalised response [18]: 102%
- normalised response [19]: 67.5%
- normalised response [20]: 78.1%
- normalised response [21]: 66.1%
- normalised response [22]: 87.5%
- normalised response [23]: 85.7%
- normalised response [24]: 95.3%
- normalised response [25]: 91.6%
- normalised response [26]: 87.8%
- normalised response [27]: 84.6%
- normalised response [28]: 92.8%
- normalised response [29]: 77.2%
- normalised response [30]: 88.5%
- normalised response [31]: 78.7%

SMILES: COc1cc2c(N3CCN(C(=O)Nc4ccc(OC(C)C)cc4)CC3)ncnc2cc1OCCCN1CCCCC1 [Tandutinib] (1000 nM)
- normalised response [1]: 100%
- normalised response [2]: 108%
- normalised response [3]: 96.2%
- normalised response [4]: 93.5%
- normalised response [5]: 98.5%
- normalised response [6]: 105%
- normalised response [7]: 98.6%
- normalised response [8]: 114%
- normalised response [9]: 100%
- normalised response [10]: 93.2%
- normalised response [11]: 97.1%
- normalised response [12]: 122%
- normalised response [13]: 93.5%
- normalised response [14]: 99.1%
- normalised response [15]: 86.9%
- normalised response [16]: 101%
- normalised response [17]: 120%
- normalised response [18]: 89%
- normalised response [19]: 97.7%
- normalised response [20]: 102%
- normalised response [21]: 117%
- normalised response [22]: 98%
- normalised response [23]: 97.7%
- normalised response [24]: 106%
- normalised response [25]: 100%
- normalised response [26]: 99.1%
- normalised response [27]: 92.3%
- normalised response [28]: 87%
- normalised response [29]: 106%
- normalised response [30]: 98.8%
- normalised response [31]: 99%

SMILES: C[C@@H](C(=O)O)c1ccc(-c2ccccc2)c(F)c1 [Tarenflurbil] (10000 nM)
- normalised response [1]: 88.4%
- normalised response [2]: 101%
- normalised response [3]: 91.1%
- normalised response [4]: 101%
- normalised response [5]: 113%
- normalised response [6]: 110%
- normalised response [7]: 101%
- normalised response [8]: 121%
- normalised response [9]: 102%
- normalised response [10]: 109%
- normalised response [11]: 110%
- normalised response [14]: 99.9%
- normalised response [15]: 90%
- normalised response [16]: 103%
- normalised response [17]: 153%
- normalised response [18]: 92.6%
- normalised response [19]: 95.2%
- normalised response [20]: 99%
- normalised response [21]: 120%
- normalised response [22]: 98.8%
- normalised response [23]: 96.7%
- normalised response [24]: 92.4%
- normalised response [25]: 96.9%
- normalised response [26]: 98.5%
- normalised response [27]: 97.5%
- normalised response [28]: 99.4%
- normalised response [29]: 98.7%
- normalised response [30]: 92.8%
- normalised response [31]: 93.3%
